ChEMBL document CHEMBL1126089, “2-Alkynyl derivatives of adenosine and adenosine-5'-N-ethyluronamide as selective agonists at A2 adenosine receptors” (J Med Chem, 1992)

Key:
Adenosine receptor A1 [1] = target: T1, Adenosine receptor A1 (Rattus norvegicus, UniProt P25099); experiment: Inhibition of adenylate cyclase via adenosine A1 receptors in rat fat cell membranes; format: functional, Membrane
T1 sequence (P25099 whole entry): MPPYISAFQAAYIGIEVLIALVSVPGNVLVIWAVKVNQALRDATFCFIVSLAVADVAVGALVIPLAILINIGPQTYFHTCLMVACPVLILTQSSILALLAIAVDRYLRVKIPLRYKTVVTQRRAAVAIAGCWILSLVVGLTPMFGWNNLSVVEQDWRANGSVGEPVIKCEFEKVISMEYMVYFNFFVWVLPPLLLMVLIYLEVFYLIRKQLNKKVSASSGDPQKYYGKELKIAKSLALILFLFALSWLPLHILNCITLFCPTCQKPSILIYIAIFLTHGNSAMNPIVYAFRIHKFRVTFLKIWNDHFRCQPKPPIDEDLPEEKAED

Adenosine A2 receptor [2] = target: T2, Adenosine A2 receptor (Homo sapiens, UniProt P29275+P29274); experiment: Agonistic activity at adenosine A2 receptor; format: functional
Adenosine A2 receptor [3] = target: T2, Adenosine A2 receptor; experiment: Maximal NECA stimulation of adenylate cyclase via adenosine A2 receptor in human platelet membranes; format: cell membranes
[4] = Selectivity as ratio of IC50 for A1 adenosine receptor compared to EC50 for A2 adenosine receptor
Adenosine receptor A1 [5] = target: T1, Adenosine receptor A1
Description: Binding affinity against adenosine A1 receptors from rat brain membranes using [3H]CCPA

Adenosine receptor A1 [6] = target: T1, Adenosine receptor A1; remark: listed apart in the source
Description: Binding affinity against high affinity component of adenosine A1 receptors from rat brain membranes using [3H]DPCPX

Adenosine receptor A1 [7] = target: T1, Adenosine receptor A1; remark: listed apart in the source
Description: Binding affinity against low affinity component of adenosine A1 receptors from rat brain membranes using [3H]-DPCPX

Adenosine A2 receptor [8] = target: T3, Adenosine A2 receptor (Rattus norvegicus, UniProt P29276+P30543)
Adenosine A2 receptor [9] = target: T2, Adenosine A2 receptor
Adenosine receptor A1 [10] = target: T1, Adenosine receptor A1; experiment: Inhibition of adenylate cyclase via Adenosine A1 receptor in rat fat cell membranes; format: functional, Membrane
Adenosine receptor A1 [11] = target: T1, Adenosine receptor A1; experiment: Binding affinity against high affinity component of Adenosine A1 receptor from rat brain membranes using [3H]-DPCPX; format: cell membranes, Membrane
Adenosine receptor A1 [12] = target: T1, Adenosine receptor A1; experiment: Binding affinity against A1 adenosine receptors from rat brain membranes using [3H]CCPA
Adenosine receptor A1 [13] = target: T1, Adenosine receptor A1; experiment: Inhibition of adenylate cyclase via A1 receptors in rat fat cell membranes; format: functional, Membrane
Adenosine A2 receptor [14] = target: T2, Adenosine A2 receptor; experiment: Agonistic activity at Adenosine A2 receptor; format: functional
Adenosine A2 receptor [15] = target: T2, Adenosine A2 receptor; experiment: Binding affinity against Adenosine A2 receptor from human platelet membranes using [3H]NECA
[16] = target: Adenosine A2 receptor (Rattus norvegicus) (UniProt P29276+P30543); experiment: Binding affinity against Adenosine A2 receptor from rat striatal membranes with 50 nM CPA using [3H]NECA
Adenosine A2 receptor [17] = target: T2, Adenosine A2 receptor; experiment: Maximal NECA stimulation of adenylate cyclase via Adenosine A2 receptor in human platelet membranes.; format: cell membranes
[18] = target: Adenosine A2a receptor (Rattus norvegicus) (UniProt P30543); experiment: Binding affinity against Adenosine A2 receptor from rat striatal membranes with 50 nM CPA using [3H]-NECA
Adenosine receptor A1 [19] = target: T1, Adenosine receptor A1; experiment: Binding affinity against low affinity component of Adenosine A1 receptor from rat brain membranes using [3H]DPCPX; format: cell membranes, Membrane
Adenosine receptor A1 [20] = target: T1, Adenosine receptor A1; experiment: Binding affinity against Adenosine A1 receptor from rat brain membranes using [3H]CCPA
Adenosine A2 receptor [21] = target: T3, Adenosine A2 receptor; experiment: Binding affinity against A2 adenosine receptors from rat striatal membranes with 50 nM CPA using [3H]NECA
Adenosine A2 receptor [22] = target: T2, Adenosine A2 receptor; experiment: Maximal NECA stimulation of adenylate cyclase via Adenosine A2 receptor in human platelet membranes; format: cell membranes
Adenosine A2 receptor [23] = target: T2, Adenosine A2 receptor; experiment: Maximal NECA stimulation of adenylate cyclase via A2 receptors in human platelet membranes; format: cell membranes
Adenosine A2 receptor [24] = target: T3, Adenosine A2 receptor; experiment: Binding affinity against Adenosine A2 receptor from rat striatal membrane with 50 nM CPA using [3H]NECA
Adenosine A2 receptor [25] = target: T2, Adenosine A2 receptor; experiment: Binding affinity against A2 adenosine receptors from human platelet membranes using [3H]NECA

Chain of Adenosine A2a receptor (Rattus norvegicus) (P30543 whole entry, looked up): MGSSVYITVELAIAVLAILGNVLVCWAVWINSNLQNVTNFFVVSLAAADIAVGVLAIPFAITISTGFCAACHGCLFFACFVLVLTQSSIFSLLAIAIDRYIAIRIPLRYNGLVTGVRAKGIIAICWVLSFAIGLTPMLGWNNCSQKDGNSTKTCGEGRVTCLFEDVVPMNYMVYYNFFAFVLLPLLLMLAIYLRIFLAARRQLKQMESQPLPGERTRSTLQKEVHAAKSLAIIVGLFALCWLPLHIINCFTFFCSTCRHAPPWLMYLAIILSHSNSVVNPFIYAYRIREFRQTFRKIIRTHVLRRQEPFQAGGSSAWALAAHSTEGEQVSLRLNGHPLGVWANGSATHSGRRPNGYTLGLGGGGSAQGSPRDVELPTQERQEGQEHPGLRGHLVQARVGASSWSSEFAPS

Row | Structure (SMILES) | IC50 (Adenosine receptor A1 [1]) [nM] | Emax (Adenosine A2 receptor [2]) [%] | EC50 (Adenosine A2 receptor [3]) [nM] | A2 selectivity [4] | Ki (Adenosine receptor A1 [5]) [nM] | Ki (Adenosine receptor A1 [6]) [nM] | Ki (Adenosine receptor A1 [7]) [nM] | Ki (Adenosine A2 receptor [8]) [nM] | Ki (Adenosine A2 receptor [9]) [nM] | Ki (Adenosine receptor A1 [11]) [nM] | Emax (Adenosine A2 receptor [14]) [%] | other results
1 | CCCCCCC#Cc1nc(N)c2ncn([C@@H]3O[C@H](CO)[C@@H](O)[C@H]3O)c2n1 | 2910 | 65 | 681 | 4 | 25.2 | 19.6 | 823 | 6.3 | 39.9 |  |  | 
2 | CCCCC#Cc1nc(N)c2ncn([C@@H]3O[C@H](C(=O)NCC)[C@@H](O)[C@H]3O)c2n1 | 4380 | 100 | 105 | 42 | 43.9 | 136 | 3160 | 3.8 | 5.7 |  |  | 
3 | CCCCC#Cc1nc(N)c2ncn([C@@H]3O[C@H](CO)[C@@H](O)[C@H]3O)c2n1 | 2300 | 65 |  |  | 15.9 | 12.5 | 633 |  |  |  |  | 
4 | CCCCCC#Cc1nc(N)c2ncn([C@@H]3O[C@H](CO)[C@@H](O)[C@H]3O)c2n1 | 3380 | 65 | 414 | 8 | 28.4 | 32.2 | 1220 | 2.8 | 20.8 |  |  | 
5 | CCCC#Cc1nc(N)c2ncn([C@@H]3O[C@H](CO)[C@@H](O)[C@H]3O)c2n1 | 3000 | 65 | 127 | 24 | 21.5 | 16 | 849 | 16.4 | 7.3 |  |  | 
6 | CCCC#Cc1nc(N)c2ncn([C@@H]3O[C@H](C(=O)NCC)[C@@H](O)[C@H]3O)c2n1 |  |  |  | 44 |  |  |  |  |  | 33 | 100 | IC50 (Adenosine receptor A1 [10]): 1620 nM; Ki (Adenosine receptor A1 [12]): 40.8 nM; IC50 (Adenosine receptor A1 [13]): 2700 nM; Ki (Adenosine A2 receptor [15]): 12.6 nM; A2 selectivity [16]: 2; EC50 (Adenosine A2 receptor [17]): 19.5 nM; EC50 [18]: 62 nM
7 | CCCCCC#Cc1nc(N)c2ncn(C3O[C@H](C(=O)NCC)[C@@H](O)[C@H]3O)c2n1 (some centres undefined) |  |  |  | 34 |  |  |  |  |  | 171 | 100 | IC50 (Adenosine receptor A1 [10]): 13100 nM; Ki (Adenosine receptor A1 [19]): 2910 nM; Ki (Adenosine receptor A1 [20]): 89 nM; Ki (Adenosine A2 receptor [21]): 4.7 nM; EC50 (Adenosine A2 receptor [22]): 37.1 nM; EC50 (Adenosine A2 receptor [23]): 388 nM
8 | CCCCCCC#Cc1nc(N)c2ncn(C3O[C@H](C(=O)NCC)[C@@H](O)[C@H]3O)c2n1 (some centres undefined) |  |  |  | 23 |  |  |  |  |  | 67 | 100 | Ki (Adenosine receptor A1 [19]): 2940 nM; Ki (Adenosine receptor A1 [20]): 64.4 nM; Ki (Adenosine A2 receptor [24]): 14.8 nM; Ki (Adenosine A2 receptor [25]): 159 nM; EC50 (Adenosine A2 receptor [22]): 13500 nM; EC50 (Adenosine A2 receptor [23]): 585 nM
